Read-outs that look alike come from different tables or passages of the source.
Tests used:
MV4;11 cells = test: Cell proliferation experiment (Alamar blue, 72 h), MV4;11; format: cell-based, human; conditions: Homo sapiens, MV4-11, 72 h, read-out: Inhibitory activity IC50 of tested compounds on MV4;11 cells
In short: (§1)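 Log-phase cells seeded, then exposed 72 h to test compound in a 5-fold dilution series, duplicate wells per concentration. Growth read by Alamar blue fluorescence; […].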

Daudi cells = test: Cell proliferation experiment, Daudi; format: cell-based, human; conditions: Homo sapiens, Daudi, 72 h, 72 h, read-out: Inhibitory activity IC50 of tested compounds on Daudi cells
In short: as §1

NCIH82 cells = test: Cell proliferation experiment, NCI-H82; format: cell-based, human; conditions: Homo sapiens, NCI-H82, 72 h, read-out: Inhibitory activity IC50 of tested compounds on NCIH82 cells
In short: as §1

U-87MG cells = test: Cell proliferation experiment, U-87MG; format: cell-based; conditions: Homo sapiens, 72 h, read-out: Inhibitory activity IC50 of tested compounds on U-87MG cells
Protocol: (§2) Reagents: RPMI-1640 medium, McCoy's 5A medium, IMDM medium, MEM medium, L-15 medium, fetal bovine serum. Penicillin-Streptomycin double antibody, trypsin, etc., 2-mercaptoethanol, NEAA, pyruvate, etc.
(§3) The cells were cultured in conventional ways, and the cells should be passed at least 2 generations before plating. Cells at the logarithmic growth phase were collected, prepared into single cell suspensions and counted. The concentration of cells was adjusted to the desired concentration, and cells were inoculated into a 96-well cell culture plate at 100 μl per well. 100 μL of complete medium of the test compound were added to each well, set up 2 duplicate wells for each concentration, and diluted with a 5-fold gradient, and continued to culture for 72 h. All cells were subjected to IC50 test for corresponding samples. The experimental results are shown in Test Example 4.
(§4) The fluorescence intensity of each well was detected using the Alarm blue method, and IC50 was calculated.
(§5) IC50 was calculated according to the following formula:
(§6) Y=Max+(Min−Max)/[1+(X/IC50)×Slope]
(§7) wherein Min, Max and Slope represent the minimum, maximum and slope respectively.

HT-29 cells = test: Cell proliferation experiment, HT-29; format: cell-based; conditions: Homo sapiens, read-out: Inhibitory activity IC50 of tested compounds on HT-29 cells
Protocol: as §2, §3, §4, §5, §6, §7

SMILES | IC50 (MV4;11 cells; MV4;11 cells, 72 h) | IC50 (Daudi cells; Daudi cells) | IC50 (NCIH82 cells; NCIH82 cells, 72 h) | IC50 (U-87MG cells; U-87MG cells) | IC50 (HT-29 cells; HT-29 cells, 72 h) | IC50 (MV4;11 cells) | IC50 (Daudi cells) | IC50 (NCIH82 cells) | IC50 (HT-29 cells; HT-29, 72 h) | IC50 (U-87MG cells; U-87 MG)
CC[C@@H]1C(=O)N(C)c2cnc(Nc3ccc(C(=O)NCCOCCNCC(=O)N[C@H](C(=O)N4C[C@H](O)C[C@H]4C(=O)NCc4ccc(-c5scnc5C)cc4)C(C)(C)C)cc3OC)nc2N1C1CCCC1 [Compound 851] |  |  |  |  |  | 0.1 to 1 µM | > 1 µM | > 1 µM | > 1 µM | > 1 µM
CC[C@@H]1C(=O)N(C)c2cnc(Nc3ccc(C(=O)NCCOCCNCCC(=O)N[C@H](C(=O)N4C[C@H](O)C[C@H]4C(=O)NCc4ccc(-c5scnc5C)cc4)C(C)(C)C)cc3OC)nc2N1C1CCCC1 [Compound 853] | > 1 µM | > 1 µM | > 1 µM | > 1 µM | > 1 µM |  |  |  |  | 
CC[C@@H]1C(=O)N(C)c2cnc(Nc3ccc(C(=O)NCCOCCOCCOCCNCC(=O)N[C@H](C(=O)N4C[C@H](O)C[C@H]4C(=O)NCc4ccc(-c5scnc5C)cc4)C(C)(C)C)cc3OC)nc2N1C1CCCC1 [Compound 854] |  |  |  |  |  | 0.1 to 1 µM | > 1 µM | > 1 µM | > 1 µM | > 1 µM
CC[C@@H]1C(=O)N(C)c2cnc(Nc3ccc(C(=O)NC4CCN(CCOCCNCCC(=O)NC(C(=O)N5C[C@H](O)C[C@H]5C(=O)NCc5ccc(-c6scnc6C)cc5)C(C)(C)C)CC4)cc3OC)nc2N1C1CCCC1 (stereo partly shown) [Compound 858] | > 1 µM | > 1 µM | > 1 µM | > 1 µM | > 1 µM |  |  |  |  | 
CC[C@@H]1C(=O)N(C)c2cnc(Nc3ccc(C(=O)NC4CCN(CCOCCNCC(=O)NC(C(=O)N5C[C@H](O)C[C@H]5C(=O)NCc5ccc(-c6scnc6C)cc5)C(C)(C)C)CC4)cc3OC)nc2N1C1CCCC1 (stereo partly shown) [Compound 859] |  |  |  |  |  | 0.1 to 1 µM | > 1 µM | > 1 µM | > 1 µM | > 1 µM

Continued, in another order:

IC50 (MV4;11 cells; MV4;11 cells, 72 h) | IC50 (Daudi cells; Daudi cells) | IC50 (NCIH82 cells; NCIH82 cells, 72 h) | IC50 (U-87MG cells; U-87MG cells) | IC50 (HT-29 cells; HT-29 cells, 72 h) | SMILES | IC50 (MV4;11 cells) | IC50 (Daudi cells) | IC50 (NCIH82 cells) | IC50 (HT-29 cells; HT-29, 72 h) | IC50 (U-87MG cells; U-87 MG)
0.1 to 1 µM | > 1 µM | > 1 µM | > 1 µM |  | CC[C@@H]1C(=O)N(C)c2cnc(Nc3ccc(C(=O)NCCCC(N)C(=O)Nc4cccc5c4CN(C4CCC(=O)NC4=O)C5=O)cc3OC)nc2N1C1CCCC1 (stereo in doubt) [Compound 856] |  |  |  |  | 
> 1 µM | > 1 µM | > 1 µM | > 1 µM | > 1 µM | CC[C@@H]1C(=O)N(C)c2cnc(Nc3ccc(C(=O)NCCOCCOCCOCCNCCC(=O)N[C@H](C(=O)N4C[C@H](O)C[C@H]4C(=O)NCc4ccc(-c5scnc5C)cc4)C(C)(C)C)cc3OC)nc2N1C1CCCC1 [Compound 850] |  |  |  |  | 
> 1 µM | > 1 µM | > 1 µM | > 1 µM | > 1 µM | CC[C@@H]1C(=O)N(C)c2cnc(Nc3ccc(C(=O)NC4CCN(CCNCCOCC(=O)N[C@H](C(=O)N5C[C@H](O)C[C@H]5C(=O)NCc5ccc(-c6scnc6C)cc5)C(C)(C)C)CC4)cc3OC)nc2N1C1CCCC1 [Compound 852] |  |  |  |  | 
≤ 0.1 µM | 0.1 to 1 µM | ≤ 1 µM | 0.5 to 1 µM | > 1 µM | CC[C@@H]1C(=O)N(C)c2cnc(Nc3ccc(C(=O)NC4CCN(CCOCCNC5CN(c6cccc7c6C(=O)N(C6CCC(=O)NC6=O)C7=O)C5)CC4)cc3OC)nc2N1C1CCCC1 (stereo partly shown) [Compound 857] |  |  |  |  | 
0.1 to 1 µM | 0.1 to 1 µM | ≤ 1 µM | > 1 µM | > 1 µM | CC[C@@H]1C(=O)N(C)c2cnc(Nc3ccc(C(=O)NC4CCN(CCOCC[C@@H](N)C(=O)Nc5cccc6c5CN(C5CCC(=O)NC5=O)C6=O)CC4)cc3OC)nc2N1C1CCCC1 (stereo partly shown) [Compound 863] |  |  |  |  | 
≤ 0.1 µM | ≤ 0.1 µM | ≤ 1 µM | ≤ 0.1 µM | ≤ 0.3 µM | CC[C@@H]1C(=O)N(C)c2cnc(Nc3ccc(C(=O)NC4CCN(CCOCCO)CC4)cc3OC)nc2N1C1CCCC1 [Compound 864] |  |  |  |  | 
 | 0.1 to 1 µM | > 1 µM | 0.5 to 1 µM | > 1 µM | CC[C@@H]1C(=O)N(C)c2cnc(Nc3ccc(C(=O)NCCOCCNCCOCCC#Cc4cccc5c4CN(C4CCC(=O)NC4=O)C5=O)cc3OC)nc2N1C1CCCC1 (stereo partly shown) [Compound 896] |  |  |  |  | 

Source: US20230210999A1, “TARGETED PROTEASE DEGRADATION (TED) PLATFORM” (EUBULUS BIOTHERAPEUTICS INC., priority 2020, published 2023)
